Results published in the supplement of paper PMC10307832.

Tests used:
Assay in all cases: relative viability (nuclei count vs DMSO), 5 days (fraction); higher = more cells survive
DM3189 + Trametinib = compound: C1CN(CCN1)C2=CC=C(C=C2)C3=CN4C(=C(C=N4)C5=CC=NC6=CC=CC=C56)N=C3 [DM3189] + CC(=O)Nc1cccc(-n2c(=O)n(C3CC3)c(=O)c3c(Nc4ccc(I)cc4F)n(C)c(=O)c(C)c32)c1 [Trametinib] (partner 0.02 µM)
Procedure, shortened: (§1)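 Lung cancer cell lines were seeded in 1536-well plates and dosed by pin tool the next day, with either a single drug or a fixed anchor-drug dose combined with five library-drug doses (not always all listed) spaced in √10 steps. Five days later, one step fixed the cells and stained their nuclei (final 0.05% Triton X-100, 1% formaldehyde, 1 ug/ml Hoechst), and nuclei were counted on 4× images. Relative viability is the nuclei count in treated wells divided by the count in vehicle wells, and each value is the median of duplicate plates.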

DM3189 + Linsitinib = compound: C1CN(CCN1)C2=CC=C(C=C2)C3=CN4C(=C(C=N4)C5=CC=NC6=CC=CC=C56)N=C3 [DM3189] + C[C@]1(O)C[C@@H](c2nc(-c3ccc4ccc(-c5ccccc5)nc4c3)c3c(N)nccn32)C1 [Linsitinib] (partner 1 µM)
Procedure, shortened: as §1

DM3189 + Pemetrexed = compound: C1CN(CCN1)C2=CC=C(C=C2)C3=CN4C(=C(C=N4)C5=CC=NC6=CC=CC=C56)N=C3 [DM3189] + Nc1nc2[nH]cc(CCc3ccc(C(=O)N[C@@H](CCC(=O)O)C(=O)O)cc3)c2c(=O)[nH]1 [Pemetrexed] (partner 0.2 µM)
Procedure, shortened: as §1

DM3189 + Crizotinib = compound: C1CN(CCN1)C2=CC=C(C=C2)C3=CN4C(=C(C=N4)C5=CC=NC6=CC=CC=C56)N=C3 [DM3189] + C[C@@H](Oc1cc(-c2cnn(C3CCNCC3)c2)cnc1N)c1c(Cl)ccc(F)c1Cl [Crizotinib] (partner 1 µM)
Procedure, shortened: as §1

DM3189 + Olaparib = compound: C1CN(CCN1)C2=CC=C(C=C2)C3=CN4C(=C(C=N4)C5=CC=NC6=CC=CC=C56)N=C3 [DM3189] + O=C(c1cc(Cc2n[nH]c(=O)c3ccccc23)ccc1F)N1CCN(C(=O)C2CC2)CC1 [Olaparib] (partner 8 µM)
Procedure, shortened: as §1

Cell Line	relative viability (DM3189 + Trametinib; first compound 0.08 µM)	relative viability (DM3189 + Trametinib; first compound 0.8 µM)	relative viability (DM3189 + Trametinib; first compound 2.53 µM)	relative viability (DM3189 + Linsitinib; first compound 0.08 µM)	relative viability (DM3189 + Linsitinib; first compound 0.253 µM)	relative viability (DM3189 + Linsitinib; first compound 0.8 µM)	relative viability (DM3189 + Linsitinib; first compound 2.53 µM)	relative viability (DM3189 + Pemetrexed; first compound 0.08 µM)	relative viability (DM3189 + Pemetrexed; first compound 0.8 µM)	relative viability (DM3189 + Pemetrexed; first compound 2.53 µM)	relative viability (DM3189 + Crizotinib; first compound 0.08 µM)	relative viability (DM3189 + Crizotinib; first compound 0.253 µM)	relative viability (DM3189 + Crizotinib; first compound 0.8 µM)	relative viability (DM3189 + Crizotinib; first compound 2.53 µM)	relative viability (DM3189 + Olaparib; first compound 0.08 µM)	relative viability (DM3189 + Olaparib; first compound 0.8 µM)	relative viability (DM3189 + Olaparib; first compound 2.53 µM)	relative viability (DM3189 + Trametinib; first compound 0.253 µM)	relative viability (DM3189 + Pemetrexed; first compound 0.253 µM)	relative viability (DM3189 + Olaparib; first compound 0.253 µM)
EKVX	0.325	0.328	0.338	0.896	1	0.717	0.993	0.499	0.302	0.368	0.952	0.918	0.925	0.896	1.06	0.517	0.814	–	–	–
EMC-BAC-2	0.925	0.891	1.04	0.848	0.8	0.82	0.827	0.47	0.406	0.486	0.8	0.71	0.686	0.773	0.5	0.339	0.492	0.877	0.395	0.455
EPLC-272H	0.285	0.267	0.322	1.24	1.3	1.16	1.29	0.275	0.338	0.276	0.97	0.96	0.941	0.821	0.669	0.735	0.565	0.326	0.318	0.714
H3255	0.789	0.513	0.732	0.951	0.982	0.846	0.994	0.682	0.555	0.559	1.09	0.818	0.623	0.845	0.576	0.547	0.627	0.731	0.537	0.573
HARA	0.674	0.712	0.944	1.2	0.853	0.997	1.31	0.239	0.227	0.232	0.991	0.992	0.917	1.21	1.23	0.579	0.654	0.736	0.205	0.733
HCC-15	0.447	0.406	0.414	0.873	0.821	0.857	0.715	0.219	0.207	0.211	0.883	0.763	0.824	0.685	0.737	0.518	0.591	0.431	0.208	0.724
HCC-44	1.07	0.897	1.2	0.711	0.724	0.56	0.733	0.606	0.581	0.622	0.859	0.818	0.625	0.893	0.996	0.944	0.931	1.09	0.602	0.918
HCC-78	0.64	0.541	0.624	0.515	0.465	–	0.474	0.918	0.848	0.927	0.314	0.328	–	0.317	0.763	0.586	0.944	0.588	0.918	0.659
